According to the supplement of paper PMC10307832:

What was measured:
Assay in all cases: relative viability (nuclei count vs DMSO), 5 days (fraction); higher = more cells survive
Daporinad + Dasatinib = compound: O=C(/C=C/c1cccnc1)NCCCCC1CCN(C(=O)c2ccccc2)CC1 [Daporinad] + Cc1nc(Nc2ncc(C(=O)Nc3c(C)cccc3Cl)s2)cc(N2CCN(CCO)CC2)n1 [Dasatinib] (partner 0.075 µM)
Summary of the method: (§1)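 Relative viability was taken as the ratio of nuclei in treated wells to nuclei in vehicle wells. Lung cancer cell lines in 1536-well plates received compounds by pin tool one day after seeding, either one drug alone or a fixed anchor-drug dose plus five library-drug doses (not always all listed) in √10 steps. Nuclei were counted on 4× images after 5 days of treatment, and values are medians of duplicate plates.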

Daporinad + Navitoclax = compound: O=C(/C=C/c1cccnc1)NCCCCC1CCN(C(=O)c2ccccc2)CC1 [Daporinad] + CC1(C)CCC(c2ccc(Cl)cc2)=C(CN2CCN(c3ccc(C(=O)NS(=O)(=O)c4ccc(N[C@H](CCN5CCOCC5)CSc5ccccc5)c(S(=O)(=O)C(F)(F)F)c4)cc3)CC2)C1 [Navitoclax] (partner 0.5 µM)
Summary of the method: as §1

R406 + Crizotinib = compound: COc1cc(Nc2ncc(F)c(Nc3ccc4c(n3)NC(=O)C(C)(C)O4)n2)cc(OC)c1OC [R406] + C[C@@H](Oc1cc(-c2cnn(C3CCNCC3)c2)cnc1N)c1c(Cl)ccc(F)c1Cl [Crizotinib] (partner 1 µM)
Summary of the method: as §1

Daporinad + Luminespib = compound: O=C(/C=C/c1cccnc1)NCCCCC1CCN(C(=O)c2ccccc2)CC1 [Daporinad] + CCNC(=O)c1noc(-c2cc(C(C)C)c(O)cc2O)c1-c1ccc(CN2CCOCC2)cc1 [Luminespib] (partner 0.01 µM)
Summary of the method: as §1

Cell Line	relative viability (Daporinad + Dasatinib; first compound 0.0005 µM)	relative viability (Daporinad + Dasatinib; first compound 0.001581 µM)	relative viability (Daporinad + Dasatinib; first compound 0.005 µM)	relative viability (Daporinad + Dasatinib; first compound 0.01581 µM)	relative viability (Daporinad + Navitoclax; first compound 0.0005 µM)	relative viability (Daporinad + Navitoclax; first compound 0.001581 µM)	relative viability (Daporinad + Navitoclax; first compound 0.005 µM)	relative viability (Daporinad + Navitoclax; first compound 0.01581 µM)	relative viability (R406 + Crizotinib; first compound 0.08 µM)	relative viability (R406 + Crizotinib; first compound 0.253 µM)	relative viability (R406 + Crizotinib; first compound 0.8 µM)	relative viability (R406 + Crizotinib; first compound 2.53 µM)	relative viability (R406 + Crizotinib; first compound 8 µM)	relative viability (Daporinad + Luminespib; first compound 0.0005 µM)	relative viability (Daporinad + Luminespib; first compound 0.001581 µM)	relative viability (Daporinad + Luminespib; first compound 0.005 µM)	relative viability (Daporinad + Luminespib; first compound 0.01581 µM)
201T	0.52	0.555	0.595	0.6	1.23	1.19	1.21	1.2	0.994	1.06	1.03	1.05	0.974	1.04	1.02	1.12	1.11
A549					1.3	1.21	1.12	0.814	0.785	0.837	0.941	0.337	0.175				
A-427	0.613	0.841	0.618	0.338	0.964	1.04	0.722	0.691	1	1.14	0.914	0.629	0.273	0.959	0.953	0.742	0.671
ABC-1	0.481	0.595	0.511	0.42					1.24	1.38	1.19	0.841	0.311	0.524	0.583	0.527	0.498
BEN	0.316	0.251	0.318	0.414	0.074	0.147	0.0521	0.083	0.923	1.32	1.15	0.785	0.641	0.356	0.559	0.456	0.437
CAL-12T	0.342	0.409	0.37	0.134	1.33	0.925	0.518	0.172	0.693	0.746	0.731	0.503	0.121	0.17	0.41	0.545	0.193
COR-L23	0.541	0.575	0.38	0.183	1.01	0.966	0.916	0.186	0.612	0.797	0.733	0.708	0.383	0.615	0.696	0.734	0.199
COR-L 105	0.317	0.376	0.346	0.416	0.777	0.883	0.722	0.618	0.955	0.89	0.822	0.8	0.263	0.807	0.805	0.82	0.738
Calu-6					0.853	0.681	0.527	0.196	0.697	0.954	0.909	0.494	0.36				
ChaGo-K-1	0.672	0.5	0.476	0.278	1.02	0.58	0.845	0.492	1.1	0.936	1.23	1.01	0.702	0.529	0.508	0.425	0.414
EBC-1					0.347	0.4	0.405	0.389	0.155	0.231	0.153	0.209	0.166				
EKVX	0.47	0.535	0.619	0.838	0.808	0.914	0.97	1.11	0.949	0.986	1.09	0.867	0.806	0.889	0.933	0.839	0.922
EMC-BAC-2	0.359	0.362	0.387	0.319	1.16	1.16	1.01	0.318	0.747	0.855	0.796	0.738	0.262	1.19	1.22	1.25	0.331
EPLC-272H	0.393	0.482	0.458	0.473	1.22	1.47	1.28	1.38	0.798	1.07	1.09	0.533	0.49	0.237	0.433	0.388	0.393
H3255	0.391	0.387	0.491	0.443	0.483	0.429	0.584	0.695	0.82	1.13	0.873	0.761	0.77	0.832	0.995	0.929	1.1
HARA	0.3	0.285	0.284	0.339	1.15	1.08	1.14	0.275	0.902	1.06	1.13	1.09	0.376	0.761	0.621	0.837	0.175
HCC-15	0.62	0.707	0.686	0.837	0.661	0.776	0.716	0.764	0.837	1.01	0.834		0.635	0.309	0.446	0.372	0.329
HCC-44					1.02	0.99	1.02	0.897	0.771	0.963	0.806	0.721	0.341	1.07	1.12	0.942	1.28
HCC-78	0.363		0.328	0.379	0.644	0.935	0.842	1.05	0.356	0.318	0.398	0.302	0.269				
HCC-366	0.697	0.738	0.646	0.738	0.993	1.02	1.17	1.06	0.581	0.794	0.81		0.294				
HCC-827	0.399	0.283	0.294	0.344	1.12	1.03	1.05	1.08	0.975	0.952	0.899	0.841	0.409	0.639	0.747	0.704	0.732
HOP-62	0.62	0.809	0.721	0.587	1.06	0.975	0.943	0.404	1.12	1.21	0.844	1.1	1.17	0.898	0.963	1.03	0.688
IA-LM					0.733	0.809	0.772	0.599	0.972	1.21	1.01	1.11	0.657				

Cell Line	relative viability (Daporinad + Dasatinib; first compound 0.0005 µM)	relative viability (Daporinad + Dasatinib; first compound 0.001581 µM)	relative viability (Daporinad + Dasatinib; first compound 0.005 µM)	relative viability (Daporinad + Dasatinib; first compound 0.01581 µM)	relative viability (Daporinad + Navitoclax; first compound 0.0005 µM)	relative viability (Daporinad + Navitoclax; first compound 0.001581 µM)	relative viability (Daporinad + Navitoclax; first compound 0.005 µM)	relative viability (Daporinad + Navitoclax; first compound 0.01581 µM)	relative viability (R406 + Crizotinib; first compound 0.08 µM)	relative viability (R406 + Crizotinib; first compound 0.253 µM)	relative viability (R406 + Crizotinib; first compound 0.8 µM)	relative viability (R406 + Crizotinib; first compound 2.53 µM)	relative viability (R406 + Crizotinib; first compound 8 µM)	relative viability (Daporinad + Luminespib; first compound 0.0005 µM)	relative viability (Daporinad + Luminespib; first compound 0.001581 µM)	relative viability (Daporinad + Luminespib; first compound 0.005 µM)	relative viability (Daporinad + Luminespib; first compound 0.01581 µM)
LC-2-ad	0.622	0.539	0.68	0.765	0.43	0.544	0.553	0.393	0.436	0.456	0.455	0.381	0.357	0.99	1.11	1.19	0.795
LCLC-97TM1	0.77	0.89	0.865	0.844	0.365	0.506	0.37	0.571	0.418	0.443	0.38	0.29	0.244	0.714	0.86	0.768	0.774
LCLC-103H	0.546	0.411	0.465	0.502					1.07	1.24	0.954	0.971	0.828	0.988	0.937	1.03	1.06
LK-2	0.266	0.343	0.33	0.193	0.865	1.04	0.583	0.393	0.275	0.224	0.178	0.255	0.259	0.181	0.213	0.176	0.147
LOU-NH91	0.544	0.497	0.654	0.745	0.678	0.851	0.928	1.24	0.745	0.728	0.756	0.504	0.57	0.331	0.364	0.291	0.382
LU99A	0.539	0.492	0.708	0.547	0.71	0.833	0.94	0.931	0.474	0.553	0.607		0.218	0.229	0.227	0.286	0.223
LXF-289	0.178	0.292	0.214	0.289	0.868	0.951	0.971	1.02	0.739	0.918	0.833	0.832	0.259	0.668	0.75	0.766	0.657
NCI-H23	0.895	0.699	0.85	0.829	0.83	0.637	0.658	0.447	0.458	0.607	0.571	0.439	0.285	0.197	0.231	0.203	0.215
NCI-H322M	0.272	0.266	0.259	0.259	1.25	1.43	1.25	0.995	0.811	1.06	0.978	0.611	0.438	0.997	0.97	0.853	0.608
NCI-H358	0.135	0.174	0.175	0.158					0.639	0.587	0.498	0.434	0.221	0.27	0.305	0.599	0.359
NCI-H441	0.665	0.614	0.618	0.662		0.609	0.815	0.559	0.72	0.975	0.846	0.599	0.461	0.36	0.324	0.367	0.343
NCI-H522	1.01	0.924	0.88	0.843										1.28	1.13	0.971	0.846
NCI-H650	0.391	0.395	0.473	0.53					0.809	0.848	0.713	0.59	0.532	0.82	0.825	0.734	0.953
NCI-H661	0.939	1	0.518	0.388						1.01	1.02	0.882	1.14	0.936	0.873	0.558	0.423
NCI-H1299					1.06	1.07	1.11	1.07	0.941	0.946	0.977	1.03	0.543				
NCI-H1395	0.361	0.464	0.419	0.422	1.03	1.14	1.13	1.26						0.774	0.657	0.722	0.782
NCI-H1563	0.43	0.423	0.497	0.458					0.791	0.868	0.891	0.913	0.619	0.535	0.582	0.493	0.485
NCI-H1623	0.537	0.463	0.542	0.525										0.618	0.497	0.472	0.555
NCI-H1703					1.16	1.2	0.816	0.335	0.623		0.662	0.199	0.129				
NCI-H1793	0.43	0.397	0.418	0.499	0.453	0.499	0.38	0.569						0.163	0.203	0.158	0.217
NCI-H2342	0.316	0.299	0.339	0.295										0.668	0.786	0.707	0.631
SW 900	0.53	0.574	0.716	0.436										0.19	0.159	0.181	0.17
